Counter-ions that a name gives are not always drawn.
Assays:
[1] = UV-vis kinetics of the regioselective reduction with rhodium catalyst precursor (2) and formate; details: for kcat rate constant for catalysis / r1 initial rate: [2] 2.725 × 10^−5 M, 299° K
Text: The kinetics of the regioselective reduction reactions were further studied utilizing UV-vis techniques with the two biomimic compounds (1) and (6) and the results were compared to NAD^+ itself. Experimental conditions are described in Example 9.
The effect of the initial rate (ri) at low conversions to the 1,4-dihydro product (˜10%) was ascertained by varying the amount of substrate precatalyst (2) and sodium formate concentrations.
The initial rates (ri) of formation of compound (3) were obtained from plots of concentration (absorbance at 354 nm/ε) versus time at low conversions (˜10%). The values of kcat were calculated at 299° K.
Rates were obtained via UV-vis techniques and are an average of two runs.
This example describes studies producing kinetic and thermodynamic data for 1-benzylnicotinamide triflate (1a) performed in THF/H2O, 1:1, β-nicotinamide -5′-ribose methyl phosphate (6) H2O, pH=6.5, and NAD^+ performed in the regioselective reduction with [Cp*Rh(bpy)H2O)][OTf]2, 2 and in the presence of formate ion.
The kinetic experiments were carried out on a Hewlett Packard 8452A Diode Array Uv-Vis spectrophotometer, attached to a circulating water bath (VWR 1160). For experiments conducted at different temperatures, the circulating water bath, as well as the UV-vis instrument, were warmed up for at least an 1 hour before the kinic studies were initiated.
The 1-benzylnicotinamide triflate (1a) [CP*Rh(bpy)(H2O)][OTf]2 (2) and 1-benzyl-1,4 dihydronicotinamide (3) were synthesized by methods as described in Examples 2, 4 and 7. The NAD^+ and 1,4-NADH compounds were purchased from Sigma and used as received. The THF was distilled from Na and deoxygenate with N2 gas for 1 hour. Distilled water was purchased from Aldrich Chemical Co and deoxygenate prior to being used. A solution of THF/H2O (similar for 1:1 or 1:4 ratios) was used for all the kinetic experiments performed for compounds of 1-benzylnicotinamide type, unless otherwise specified. A stock solution of biomimic (1a) (0.018 M), 2 (6.23×10^−3 M), and sodium formate (0.25 M) were made for the kinetic experiments in THF/H2O (1:1).
A solution of 1-benzylnicotinamide triflate (1a), (4.29×10^−3 M) and sodium formate (0.0539) was made in a volumetric flask (10 mL) under N2 in a THF/H2O (1:1) mixture. The different concentration of biomimic (1a) and sodium formate used for the kinetic experiments are reported above.
A 3.0 mL aliquot of this solution was transferred to a thermostated UV-vis cell by using an air-free syringe, which was also purged with N2 gas. The sample was then brought to the desired temperature for 30-60 min in the UV-vis spectrophotometer thermostated cell holder. Then, 23 μL of a 6.23×10^−3 M stock solution of [CP*Rh(bpy)(H2O)^2+ (2), was added-by syringe under a positive N2 pressure, quickly mixed with the solution, and the absorbance increase at 354 nm was immediately recorded. The experiment was carried out for 2 hours and the formation of the product, 1-benzyl-1,4-dihydronicotinamide, (3) was followed, with the change in absorbance being recorded every 90 seconds. Some kinetic experiments were carried out until all the starting material was converted to product. The induced volume change was taken into account for the calculation of the turnover frequency (TOF).
The kinetic experiments for the β-nicotinamide-5′-ribose methyl phosphate (6) and natural NAD^+ were performed using the same general procedure described above. These kinetic experiments were carried out in H2O and the concentration of β-nicotinamide-5′-ribose methyl phosphate (6) or NAD^+, sodium formate, and [Cp*Rh(bpy)(H2O)]^2+ (2), were in the order of 1.50×10^−3, 0.0186 M, and 1.42×10^−5 M, respectively. The λmax for the β-nicotinamide-5′-ribose methyl phosphate, (6), and natural NAD^+ was 336 nm. In all the initial rate plots, time =0 s was removed from the plots of Concentration versus Time. The standard deviation of the ri were calculated from 2σ values.

[2] = competitive regioselective substrate reduction experiments with rhodium catalyst precursor (2)
Experimental: In order to establish whether the σ-donating ability or the electron-withdrawing effect of the 3-substituent of the 1-benzylnicotinamide was the important parameter, several competitive substrate reduction experiments were performed.
For this purpose, the compound (1a) 1-benzylnicotinamide, was reduced with rhodium catalyst precursor (2) in the presence of its alternatively substituted derivatives, compounds (1e), substituted with —C(O)—CH3, (1g), substituted with (—CN), (1d), substituted with —C(S)NH2 or (1f), substituted with —C(O)OCH3, and their competitive reduction was determined.

[3] = [1a] 1.07 × 10^−3 M, HCO2Na 0.03266 M, 1:1 H2O/THF
[4] = [1a] 1.61 × 10^−3 M, HCO2Na 0.03260 M, 1:1 H2O/THF
[5] = [1a] 2.68 × 10^−3 M, HCO2Na 0.03266 M, 1:1 H2O/THF
[6] = [1a] 2.68 × 10^−4 M, HCO2Na 0.03266 M, 1:1 H2O/THF
[7] = [1a] 5.37 × 10^−4 M, HCO2Na 0.03259 M, 1:1 H2O/THF

NC(=O)c1ccc[n+](Cc2ccccc2)c1 [Compound 1a, 1-Benzylnicotinamide, Triflate Salt] gave a TOF ([1]; 294° K, 1:1 H2O/THF, substrate 4.29 × 10^−3 M) of 2 h⁻¹, a ri initial rate ([1]; 294° K, 1:1 H2O/THF, substrate 4.29 × 10^−3 M, HCO2Na 5.39 × 10^−2 M, (2) 4.33 × 10^−5 M) of 1.23e-08 M/s and a TOF ([1]; H2O/THF 1:1, 1a 4.29 × 10^−3 M) of 2 h⁻¹. The ri initial rate ([1]; H2O/THF 1:1, 1a 4.29 × 10^−3 M, HCO2Na 5.39 × 10^−2 M, (2) 4.33 × 10^−5 M) was 1.23e-08 M/s, the TOF ([1]; H2O/THF 4:1, 1a 1.68 × 10^−3 M) was 10 h⁻¹ and the ri initial rate ([1]; H2O/THF 4:1, 1a 1.68 × 10^−3 M, HCO2Na 1.79 × 10^−3 M, (2) 1.71 × 10^−5 M) was 4.31e-08 M/s. The TOF ([1]; H2O/THF 4:1, 1a 4.82 × 10^−3 M) was 13 h⁻¹, the ri initial rate ([1]; H2O/THF 4:1, 1a 4.82 × 10^−3 M, HCO2Na 5.52 × 10^−2 M, (2) 4.83 × 10^−5 M) was 1.75e-07 M/s and the “increase in initial rate of formation of the 1,4-dihydro derivative (3a), factor” value ([1]; THF/H2O from 1:1 to 1:4, comparable concentrations) was > 6. For the same molecule, the “kcat rate constant for catalysis” value [1, 3] was 12.61 M^−2s^−1, the r1 initial rate [1, 3] was 1.2e-08 M/s and the “kcat rate constant for catalysis” value [1, 4] was 14.03 M^−2s^−1. The r1 initial rate [1, 4] was 2.01e-08 M/s, the “kcat rate constant for catalysis” value [1, 5] was 14.38 M^−2s^−1 and the r1 initial rate [1, 5] was 3.43e-08 M/s. For the same molecule, the “kcat rate constant for catalysis” value [1, 6] was 8.85 M^−2s^−1, the r1 initial rate [1, 6] was 2.1e-09 M/s and the “kcat rate constant for catalysis” value [1, 7] was 13.02 M^−2s^−1. The r1 initial rate [1, 7] was 6.3e-09 M/s, the “times faster than the —C(O)CH3 analog (1e)” value ([2]; competitive reduction of (1a) with (1e)) was 1.1 times and the “times faster than the —CN analog (1g)” value ([2]; competitive reduction of (1a) with (1g)) was 1.3 times.

From patent publication US6716596B2, “Agents for replacement of NAD+/NADH system in enzymatic reactions” (The Regents of the University of California, priority 2001, dated 2004)
